{"source": "patent US10874743B2", "about": "“IRAK degraders and uses thereof” (Kymera Therapeutics, Inc., priority 2017, dated 2020)", "assay": "Pharmacokinetics in CD-1 mice (plasma concentrations, PK parameters)", "type": "in vivo", "conditions": "CD-1, mouse, plasma; for concentration at 5 min / concentration at 0.5 h / concentration at 1 h / concentration at 2 h / concentration at 4 h / concentration at 24 h: read-out: Concentration; for AUC(0-inf): read-out: AUCInf; for AUC(0-t): read-out: AUClast; for C0: read-out: C0; for MRT inf: read-out: MRTInf_obs; for Cmax: read-out: Cmax; for Tmax: read-out: Tmax", "experimental": "Pharmacokinetics for I-127, I-172 and I-210 were determined in Sprague Dawley rats or CD-1 mice by dosing intravenous (IV), subcutaneous (SC) or per oral (PO) using facility SOPs and sampling plasma at required time points. Species, formulation, route of administration and time points samples are listed below for each compound.\nCompounds were extracted from plasma, injected on reverse phase HPLC, eluted with a gradient from 5% to 95% acetonitrile in water and quantified by mass spectrometry with internal standard. Data are expressed in ng compound per mL of plasma.", "key": {"[1]": {"conditions": "iv, 2 mg/kg, mouse (CD1) iv 2 mg/kg, Mean"}, "[2]": {"conditions": "iv, 2 mg/kg, mouse (CD1) iv 2 mg/kg, individual Mouse 1-3"}, "[3]": {"conditions": "po, 30 mg/kg, mouse (CD1) po 30 mg/kg, Mean"}, "[4]": {"conditions": "po, 30 mg/kg, mouse (CD1) po 30 mg/kg, individual Mouse 4-6"}, "[5]": {"conditions": "sc, 30 mg/kg, mouse (CD1) sc 30 mg/kg, Mean"}, "[6]": {"conditions": "sc, 30 mg/kg, mouse (CD1) sc 30 mg/kg, individual Mouse 7-9"}}, "note": "Read-outs that look alike come from different tables or passages of the source.", "data": [{"smiles": "O=C1CCC(N2C(=O)c3cccc(NCCOCCOCCNCc4ccc(-n5cc(NC(=O)c6coc(-c7ccnc(NCC8CC8)c7)n6)c(C(F)F)n5)cc4)c3C2=O)C(=O)N1", "note": "(stereo not drawn) [I-210, 2-[2-(Cyclopropylmethylamino)-4-pyridyl]-N-[3-(difluoromethyl)-1-[4-[[2-[2-[2-[[2-(2,6-dioxo-3-piperidyl)-1,3-dioxoisoindolin-4-yl]amino]ethoxy]ethoxy]ethylamino]methyl]phenyl]pyrazol-4-yl]oxazole-4-carboxamide]", "values": [{"measurement": "concentration at 5 min", "setting": "[1]", "result": 589, "unit": "ng/mL"}, {"measurement": "concentration at 5 min", "setting": "[2]", "result": 579, "unit": "ng/mL"}, {"measurement": "concentration at 0.25 h", "setting": "[1]", "result": 390, "unit": "ng/mL"}, {"measurement": "concentration at 0.25 h", "setting": "[2]", "result": 364, "unit": "ng/mL"}, {"measurement": "concentration at 0.5 h", "setting": "[1]", "result": 283, "unit": "ng/mL"}, {"measurement": "concentration at 0.5 h", "setting": "[2]", "result": 306, "unit": "ng/mL"}, {"measurement": "concentration at 1 h", "setting": "[1]", "result": 193, "unit": "ng/mL"}, {"measurement": "concentration at 1 h", "setting": "[2]", "result": 220, "unit": "ng/mL"}, {"measurement": "concentration at 2 h", "setting": "[1]", "result": 90.8, "unit": "ng/mL"}, {"measurement": "concentration at 2 h", "setting": "[2]", "result": 89.3, "unit": "ng/mL"}, {"measurement": "concentration at 4 h", "setting": "[1]", "result": 26.1, "unit": "ng/mL"}, {"measurement": "concentration at 4 h", "setting": "[2]", "result": 32.5, "unit": "ng/mL"}, {"measurement": "concentration at 8 h", "setting": "[1]", "result": 5.19, "unit": "ng/mL"}, {"measurement": "concentration at 8 h", "setting": "[2]", "result": 5.72, "unit": "ng/mL"}, {"measurement": "half-life", "setting": "[1]", "result": 1.49, "unit": "h"}, {"measurement": "AUC(0-inf)", "setting": "[1]", "result": 672, "unit": "ng·h/mL"}, {"measurement": "AUC(0-t)", "setting": "[1]", "result": 661, "unit": "ng·h/mL"}, {"measurement": "C0", "setting": "[1]", "result": 726, "unit": "ng/mL"}, {"measurement": "MRT inf", "setting": "[1]", "result": 1.5, "unit": "h"}, {"measurement": "half-life", "setting": "[2]", "result": 1.52, "unit": "h"}, {"measurement": "AUC(0-inf)", "setting": "[2]", "result": 714, "unit": "ng·h/mL"}, {"measurement": "AUC(0-t)", "setting": "[2]", "result": 701, "unit": "ng·h/mL"}, {"measurement": "C0", "setting": "[2]", "result": 730, "unit": "ng/mL"}, {"measurement": "MRT inf", "setting": "[2]", "result": 1.58, "unit": "h"}, {"measurement": "concentration at 0.25 h", "setting": "[3]", "result": 30.8, "unit": "ng/mL"}, {"measurement": "concentration at 0.5 h", "setting": "[3]", "result": 55, "unit": "ng/mL"}, {"measurement": "concentration at 1 h", "setting": "[3]", "result": 72, "unit": "ng/mL"}, {"measurement": "concentration at 2 h", "setting": "[3]", "result": 127, "unit": "ng/mL"}, {"measurement": "concentration at 2 h", "setting": "[4]", "result": 177, "unit": "ng/mL"}, {"measurement": "concentration at 4 h", "setting": "[3]", "result": 120, "unit": "ng/mL"}, {"measurement": "concentration at 4 h", "setting": "[4]", "result": 92.5, "unit": "ng/mL"}, {"measurement": "concentration at 8 h", "setting": "[3]", "result": 22.8, "unit": "ng/mL"}, {"measurement": "half-life", "setting": "[3]", "result": 2.27, "unit": "h"}, {"measurement": "AUC(0-inf)", "setting": "[3]", "result": 753, "unit": "ng·h/mL"}, {"measurement": "AUC(0-t)", "setting": "[3]", "result": 676, "unit": "ng·h/mL"}, {"measurement": "Cmax", "setting": "[3]", "result": 148, "unit": "ng/mL"}, {"measurement": "MRT inf", "setting": "[3]", "result": 4.14, "unit": "h"}, {"measurement": "Tmax", "setting": "[3]", "result": 3.33, "unit": "h"}, {"measurement": "half-life", "setting": "[4]", "result": 2.59, "unit": "h"}, {"measurement": "AUC(0-inf)", "setting": "[4]", "result": 917, "unit": "ng·h/mL"}, {"measurement": "AUC(0-t)", "setting": "[4]", "result": 786, "unit": "ng·h/mL"}, {"measurement": "Cmax", "setting": "[4]", "result": 177, "unit": "ng/mL"}, {"measurement": "MRT inf", "setting": "[4]", "result": 4.22, "unit": "h"}, {"measurement": "Tmax", "setting": "[4]", "result": 2, "unit": "h"}, {"measurement": "concentration at 0.25 h", "setting": "[5]", "result": 79.3, "unit": "ng/mL"}, {"measurement": "concentration at 0.25 h", "setting": "[6]", "result": 74.8, "unit": "ng/mL"}, {"measurement": "concentration at 0.5 h", "setting": "[5]", "result": 85, "unit": "ng/mL"}, {"measurement": "concentration at 0.5 h", "setting": "[6]", "result": 88.8, "unit": "ng/mL"}, {"measurement": "concentration at 1 h", "setting": "[5]", "result": 97, "unit": "ng/mL"}, {"measurement": "concentration at 1 h", "setting": "[6]", "result": 107, "unit": "ng/mL"}, {"measurement": "concentration at 2 h", "setting": "[5]", "result": 95, "unit": "ng/mL"}, {"measurement": "concentration at 2 h", "setting": "[6]", "result": 90, "unit": "ng/mL"}, {"measurement": "concentration at 4 h", "setting": "[5]", "result": 98, "unit": "ng/mL"}, {"measurement": "concentration at 4 h", "setting": "[6]", "result": 95.9, "unit": "ng/mL"}, {"measurement": "concentration at 8 h", "setting": "[5]", "result": 43.5, "unit": "ng/mL"}, {"measurement": "concentration at 8 h", "setting": "[6]", "result": 39.6, "unit": "ng/mL"}, {"measurement": "concentration at 24 h", "setting": "[5]", "result": 2.85, "unit": "ng/mL"}, {"measurement": "concentration at 24 h", "setting": "[6]", "result": 3.62, "unit": "ng/mL"}, {"measurement": "half-life", "setting": "[5]", "result": 3.96, "unit": "h"}, {"measurement": "AUC(0-inf)", "setting": "[5]", "result": 1040, "unit": "ng·h/mL"}, {"measurement": "AUC(0-t)", "setting": "[5]", "result": 1020, "unit": "ng·h/mL"}, {"measurement": "Cmax", "setting": "[5]", "result": 109, "unit": "ng/mL"}, {"measurement": "MRT inf", "setting": "[5]", "result": 5.87, "unit": "h"}]}]}
